From patent US10179790B2 (THOMAS HELLEDAYS STIFTELSE FOR MEDICINSK FORSKNING, priority 2014, dated 2019)

Assays:
MTH1 = MTH1 (Homo sapiens, UniProt P36639); test: MTH1 enzymatic assay and IC50 value determination (malachite green, 96- and 384-well format); assay type: biochemical; conditions: hydrolysis of dGTP (100 μM), MTH1 6 nM, pyrophosphatase-coupled malachite green, 15 minutes at 22° C.
In short: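 MTH1 (6 nM) hydrolysed dGTP (100 μM) for 15 min at 22 °C in Tris-acetate buffer with Mg2+, DTT, Tween 20 and excess pyrophosphatase, 1% DMSO. Pi detected with malachite green at 630 nm. IC50 from nonlinear 4-parameter fit of 11–12-point dilution series.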

cancer cell = test: Cell viability assay (resazurin); assay type: cell-based; conditions: 72 h; 3 days with compound, resazurin fluorescence; cell line not named
Procedure: The utility of the compounds of the present invention can be illustrated, for example, by their activity in vitro in the cancer cell clonogenic and/or viability assay described below. The link between activity in tumor cell clonogenic assay and anti-tumor activity in the clinical setting has been well established in the art (e.g. see ref Silverstini et al Stem Cells 1993, 11(6), 258-35).
Cells are seeded into 96 well plates (1000-3000 cells/well) in DMEM GlutaMAX™ or other suitable media dependent on cell line and incubated overnight in 5% CO2, 37° C. Thereafter cells are treated with compound or vehicle and left in incubator for 3 days until staining with resazurin. Cells are incubated in resazurin (diluted in suitable media) at 37° C. for 2 hours before measuring the fluorescence (Ex544/Em590).
The compounds to be tested are nano-dispensed in 11 concentrations, directly in 384-well cell plates, with a final DMSO concentration <1%. Cells are seeded in cell plates, pre-dispensed with compounds, 50 μl/well (600-1200 cells/well). After 3 days culture in 5% CO2, 37° C., resazurin diluted in PBS is added, 10 μl/well, and cells are incubated 3 hours before measuring fluorescence (Ex544/Em590).

SMILES	IC50 (MTH1) [µM]	IC50 (cancer cell) [µM]
Cc1c(Cl)cccc1-c1cc(NCCOc2ccc(C(N)=O)cn2)nc(N)n1 [Example 55, 6-(2-{[2-amino-6-(3-chloro-2-methylphenyl)pyrimidin-4-yl]amino}ethoxy)pyridine-3-carboxamide]	< 0.2	< 0.5
Cc1c(Cl)cccc1-c1cc(NCCNc2ccc3c(c2)NC(=O)C(C)(C)O3)nc(N)n1 [Example 56, 6-[(2-{[2-amino-6-(3-chloro-2-methylphenyl)pyrimidin-4-yl]amino}ethyl)amino]-2,2-dimethyl-3,4-dihydro-2H-1,4-benzoxazin-3-one]	< 0.2	< 0.5
Cc1c(Cl)cccc1-c1cc(NCCOc2nccc(C(N)=O)n2)nc(N)n1 [Example 57, 2-(2-{[2-amino-6-(3-chloro-2-methylphenyl)pyrimidin-4-yl]amino}ethoxy)pyrimidine-4-carboxamide]	< 0.2	< 0.5
Cc1c(Cl)cccc1-c1cc(NCCc2ccc(NC(=O)C(C)(C)C)cc2)nc(N)n1 [Example 59, N-[4-(2-{[2-amino-6-(3-chloro-2-methylphenyl)pyrimidin-4-yl]amino}ethyl)phenyl]-2,2-dimethylpropanamide]	< 0.2	< 0.5
Cc1c(Cl)cccc1-c1cc(NCCc2ccc(NS(=O)(=O)CC(F)(F)F)cc2)nc(N)n1 [Example 60, N-[4-(2-{[2-amino-6-(3-chloro-2-methylphenyl)pyrimidin-4-yl]amino}ethyl)phenyl]-2,2,2-trifluoroethane-1-sulfonamide]	< 0.2	< 0.5
Cc1c(Cl)cccc1-c1cc(NCCc2ccc(NC(=O)NC(C)C)cc2)nc(N)n1 [Example 61, 1-[4-(2-{[2-amino-6-(3-chloro-2-methylphenyl)pyrimidin-4-yl]amino}ethyl)phenyl]-3-(propan-2-yl)urea]	< 0.2	< 0.5
Cc1c(Cl)cccc1-c1cc(NCCc2ccc(NC(=O)OC(C)(C)C)cc2)nc(N)n1 [Example 62, tert-butyl N-[4-(2-{[2-amino-6-(3-chloro-2-methylphenyl)pyrimidin-4-yl]amino}ethyl)phenyl]carbamate]	< 0.2	< 0.5
CCS(=O)(=O)Nc1ccc(CCNc2cc(-c3cccc(Cl)c3C)nc(N)n2)cc1 [Example 64, N-[4-(2-{[2-amino-6-(3-chloro-2-methylphenyl)pyrimidin-4-yl]amino}ethyl)phenyl]ethane-1-sulfonamide]	< 0.2	< 0.5
Cc1cc(C)c(-c2cc(NCCc3ccc(S(N)(=O)=O)cc3)nc(N)n2)cc1C [Example 65, 4-(2-{[2-amino-6-(2,4,5-trimethylphenyl)pyrimidin-4-yl]amino}ethyl)benzene-1-sulfonamide]	< 0.2	< 0.5
COc1cc(C)c(-c2cc(NCCc3ccc(S(N)(=O)=O)cc3)nc(N)n2)cc1C [Example 66, 4-(2-{[2-amino-6-(4-methoxy-2,5-dimethylphenyl)pyrimidin-4-yl]amino}ethyl)benzene-1-sulfonamide]	< 0.2	< 0.5
Cc1ccc(C)c(-c2cc(NCCc3ccc(S(N)(=O)=O)cc3)nc(N)n2)c1 [Example 70, 4-(2-{[2-amino-6-(2,5-dimethylphenyl)pyrimidin-4-yl]amino}ethyl)benzene-1-sulfonamide]	< 0.2	< 0.5
Cc1c(-c2cc(NCCc3ccc(S(N)(=O)=O)cc3)nc(N)n2)cc(Cl)c(Cl)c1Cl [Example 72, 4-(2-{[2-amino-6-(3,4,5-trichloro-2-methylphenyl)pyrimidin-4-yl]amino}ethyl)benzene-1-sulfonamide]	< 0.2	< 0.5
Cc1cc(Cl)cc(-c2cc(NCCc3ccc(S(N)(=O)=O)cc3)nc(N)n2)c1F [Example 73, 4-(2-{[2-amino-6-(5-chloro-2-fluoro-3-methylphenyl)pyrimidin-4-yl]amino}ethyl)benzene-1-sulfonamide]	< 0.2	< 0.5
Cc1c(Cl)cc(Cl)cc1-c1cc(NCCc2ccc(S(N)(=O)=O)cc2)nc(N)n1 [Example 74, 4-(2-{[2-amino-6-(3,5-dichloro-2-methylphenyl)pyrimidin-4-yl]amino}ethyl)benzene-1-sulfonamide]	< 0.2	< 0.5
Cc1c(-c2cc(NCCc3ccc(C(N)=O)cc3)nc(N)n2)cc(Cl)c(Cl)c1Cl [Example 75, 4-(2-{[2-amino-6-(3,4,5-trichloro-2-methylphenyl)pyrimidin-4-yl]amino}ethyl)benzamide]	< 0.2	< 0.5
Cc1c(Cl)cc(Cl)cc1-c1cc(NCCc2ccc(C(N)=O)cc2)nc(N)n1 [Example 76, 4-(2-{[2-amino-6-(3,5-dichloro-2-methylphenyl)pyrimidin-4-yl]amino}ethyl)benzamide]	< 0.2	< 0.5
Cc1c(F)ccc(-c2cc(NCCc3ccc(C(N)=O)cc3)nc(N)n2)c1C [Example 77, 4-(2-{[2-amino-6-(4-fluoro-2,3-dimethylphenyl)pyrimidin-4-yl]amino}ethyl)benzamide]	< 0.2	< 0.5
Cc1c(-c2cc(NCCc3ccc(C(N)=O)cc3)nc(N)n2)ccc(Cl)c1Cl [Example 78, 4-(2-{[2-amino-6-(3,4-dichloro-2-methylphenyl)pyrimidin-4-yl]amino}ethyl)benzamide]	< 0.2	< 0.5
Cc1cc(Cl)cc(-c2cc(NCCc3ccc(C(N)=O)cc3)nc(N)n2)c1F [Example 79, 4-(2-{[2-amino-6-(5-chloro-2-fluoro-3-methylphenyl)pyrimidin-4-yl]amino}ethyl)benzamide]	< 0.2	< 0.5
Cc1c(Cl)cccc1-c1cc(NCCc2cccc(NC(=O)C(C)(C)C)c2)nc(N)n1 [Example 81, N-[3-(2-{[2-amino-6-(3-chloro-2-methylphenyl)pyrimidin-4-yl]amino}ethyl)phenyl]-2,2-dimethylpropanamide]	< 0.2	< 0.5
Cc1c(Cl)cccc1-c1cc(NCCc2cccc(NC(=O)NC(C)C)c2)nc(N)n1 [Example 82, 1-[3-(2-{[2-amino-6-(3-chloro-2-methylphenyl)pyrimidin-4-yl]amino}ethyl)phenyl]-3-(propan-2-yl)urea]	< 0.2	< 0.5
Cc1c(Cl)cccc1-c1cc(NCCc2cccc(NC(=O)OC(C)(C)C)c2)nc(N)n1 [Example 83, tert-butyl N-[3-(2-{[2-amino-6-(3-chloro-2-methylphenyl)pyrimidin-4-yl]amino}ethyl)phenyl]carbamate]	< 0.2	< 0.5
Cc1c(Cl)cccc1-c1cc(NCCc2cccc(NC(=O)C3CC3)c2)nc(N)n1 [Example 84, N-[3-(2-{[2-amino-6-(3-chloro-2-methylphenyl)pyrimidin-4-yl]amino}ethyl)phenyl]cyclopropanecarboxamide]	< 0.2	< 0.5
Cc1c(Cl)cccc1-c1cc(NCCc2cccc(NS(=O)(=O)CC(C)C)c2)nc(N)n1 [Example 85, N-[3-(2-{[2-amino-6-(3-chloro-2-methylphenyl)pyrimidin-4-yl]amino}ethyl)phenyl]-2-methylpropane-1-sulfonamide]	< 0.2	< 0.5
Cc1c(Cl)cccc1-c1cc(NCCc2ccc(NS(=O)(=O)C(C)C)cc2)nc(N)n1 [Example 86, N-[4-(2-{[2-amino-6-(3-chloro-2-methylphenyl)pyrimidin-4-yl]amino}ethyl)phenyl]propane-2-sulfonamide]	< 0.2	< 0.5
Cc1c(Cl)cccc1-c1cc(NCCc2ccc(NS(=O)(=O)CC(C)C)cc2)nc(N)n1 [Example 87, N-[4-(2-{[2-amino-6-(3-chloro-2-methylphenyl)pyrimidin-4-yl]amino}ethyl)phenyl]-2-methylpropane-1-sulfonamide]	< 0.2	< 0.5
CNC(=O)c1ccc(CCNc2cc(-c3cccc(Cl)c3C)nc(N)n2)cc1 [Example 89, 4-[2-[[2-amino-6-(3-chloro-2-methyl-phenyl)pyrimidin-4-yl]amino]ethyl]-N-methyl-benzamide]	< 0.2	< 0.5
Cc1c(Cl)cccc1-c1cc(NCCc2ccc(C(=O)N3CCCC3)cc2)nc(N)n1 [Example 90, [4-[2-[[2-amino-6-(3-chloro-2-methyl-phenyl)pyrimidin-4-yl]amino]ethyl]phenyl]-pyrrolidin-1-yl-methanone]	< 0.2	< 0.5
Cc1c(Cl)cccc1-c1cc(NCCNc2ccc3c(c2)OCC(=O)N3)nc(N)n1 [Example 91, 7-[2-[[2-amino-6-(3-chloro-2-methyl-phenyl)pyrimidin-4-yl]amino]ethylamino]-4H-1,4-benzoxazin-3-one]	< 0.2	< 0.5
Cc1c(Cl)cccc1-c1cc(NCCNc2ccc3c(c2)N(C)C(=O)CO3)nc(N)n1 [Example 92, 6-[2-[[2-amino-6-(3-chloro-2-methyl-phenyl)pyrimidin-4-yl]amino]ethylamino]-4-methyl-1,4-benzoxazin-3-one]	< 0.2	< 0.5
